In ChEMBL document CHEMBL1201862, “PubChem BioAssay data set” (2004):
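Method: 48-hour compound exposure of cells in 96-well plates, five concentrations, linear interpolation of endpoints. Abbreviation: GI50, concentration required for 50% inhibition of growth.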 Activity calls are given as the source filed them. Cut-off read from the data, not from the text of the source: active = GI50 up to about 1.1 µM and inactive = higher.

Columns and labels:
Experiment in all cases: growth of human tumour cells (NCI), 48 h
CAKI-1 = system: CAKI-1
EKVX = system: EKVX
OVCAR-8 = system: OVCAR-8
TK-10 = system: TK-10
SNB-19 = system: SNB-19
KM12 = system: KM12
NCI-H460 = system: NCI-H460
OVCAR-5 = system: OVCAR-5
A549 = system: A549
786-0 = system: 786-0
HT-29 = system: HT-29
CCRF-CEM = system: CCRF-CEM
SK-MEL-5 = system: SK-MEL-5
UACC-257 = system: UACC-257
ACHN = system: ACHN
SF-268 = system: SF-268
UO-31 = system: UO-31
NCI-H522 = system: NCI-H522
MDA-MB-231 = system: MDA-MB-231
HCC 2998 = system: HCC 2998

| SMILES | GI50 (CAKI-1) | GI50 (EKVX) | GI50 (OVCAR-8) | GI50 (TK-10) | GI50 (SNB-19) | GI50 (KM12) | GI50 (NCI-H460) | GI50 (OVCAR-5) | GI50 (A549) | GI50 (786-0) | GI50 (HT-29) | GI50 (CCRF-CEM) | GI50 (SK-MEL-5) | GI50 (UACC-257) | GI50 (ACHN) | GI50 (SF-268) | GI50 (UO-31) | GI50 (NCI-H522) | GI50 (MDA-MB-231) | GI50 (HCC 2998) |
| --- | --- | --- | --- | --- | --- | --- | --- | --- | --- | --- | --- | --- | --- | --- | --- | --- | --- | --- | --- | --- |
| NCC1CCCCC1.O=C(O)NCC1CCCCC1 | 28.2 µM (inactive) | 30.1 µM (inactive) | 13.2 µM (inactive) | 30 µM (inactive) | 47.3 µM (inactive) | 12.1 µM (inactive) | 13.4 µM (inactive) | 31.9 µM (inactive) | 30.1 µM (inactive) | 24.1 µM (inactive) | 19.3 µM (inactive) | 15.7 µM (inactive) | 15.3 µM (inactive) | 22.2 µM (inactive) | 23.9 µM (inactive) | 12.8 µM (inactive) | 33.6 µM (inactive) | 10.7 µM (inactive) | 25.8 µM (inactive) | – |
| Nc1ccc2[nH]cc(CCC(=O)O)c2c1 | > 100 µM (inactive) | > 100 µM (inactive) | > 100 µM (inactive) | > 100 µM (inactive) | > 100 µM (inactive) | > 100 µM (inactive) | – | > 100 µM (inactive) | > 100 µM (inactive) | > 100 µM (inactive) | > 100 µM (inactive) | 9.48 µM (inactive) | > 100 µM (inactive) | > 100 µM (inactive) | > 100 µM (inactive) | > 100 µM (inactive) | > 100 µM (inactive) | > 100 µM (inactive) | > 100 µM (inactive) | – |
| Cc1cc(Cl)ccc1OCC(=O)Nc1nc(N)nc(N)n1 | > 100 µM (inactive) | > 100 µM (inactive) | > 100 µM (inactive) | > 100 µM (inactive) | > 100 µM (inactive) | > 100 µM (inactive) | > 100 µM (inactive) | > 100 µM (inactive) | > 100 µM (inactive) | > 100 µM (inactive) | > 100 µM (inactive) | > 100 µM (inactive) | > 100 µM (inactive) | > 100 µM (inactive) | > 100 µM (inactive) | > 100 µM (inactive) | 40.7 µM (inactive) | > 100 µM (inactive) | > 100 µM (inactive) | – |
| COc1cccc2c1C(=O)c1ccc3cc(CO)cc(O)c3c1C2=O | 2.72 µM (inactive) | 1.87 µM (inactive) | 0.231 µM (active) | 3.01 µM (inactive) | 1.79 µM (inactive) | 0.893 µM (active) | 0.304 µM (active) | 2.09 µM (inactive) | 0.624 µM (active) | 0.619 µM (active) | 0.813 µM (active) | 0.204 µM (active) | 0.139 µM (active) | 0.0879 µM (active) | 0.509 µM (active) | 0.815 µM (active) | 0.982 µM (active) | 0.865 µM (active) | 0.594 µM (active) | – |
| NNC(=O)N/N=C1\CNC(=O)C(=O)C1c1nc2ccccc2s1 (centres undefined) | > 100 µM (inactive) | > 100 µM (inactive) | > 100 µM (inactive) | > 100 µM (inactive) | > 100 µM (inactive) | > 100 µM (inactive) | > 100 µM (inactive) | > 100 µM (inactive) | > 100 µM (inactive) | > 100 µM (inactive) | > 100 µM (inactive) | > 100 µM (inactive) | > 100 µM (inactive) | > 100 µM (inactive) | > 100 µM (inactive) | > 100 µM (inactive) | > 100 µM (inactive) | > 100 µM (inactive) | – | > 100 µM (inactive) |
| CC(C)NC(=O)OCc1c(COC(=O)NC(C)C)n(C)c2c1ccc1cc(Cl)c(Cl)cc12 | 2.09 µM (inactive) | 14.8 µM (inactive) | 11.6 µM (inactive) | 5.43 µM (inactive) | 13.4 µM (inactive) | – | 3.41 µM (inactive) | 15.4 µM (inactive) | 19.5 µM (inactive) | 7.5 µM (inactive) | 15.9 µM (inactive) | 3.33 µM (inactive) | 16.5 µM (inactive) | 15.7 µM (inactive) | 11.7 µM (inactive) | 13.8 µM (inactive) | 16.7 µM (inactive) | 1.49 µM (inactive) | 12.7 µM (inactive) | – |
| CCC(=N\NC(N)=S)/C(C)=N/O | > 100 µM (inactive) | > 100 µM (inactive) | > 100 µM (inactive) | > 100 µM (inactive) | > 100 µM (inactive) | > 100 µM (inactive) | > 100 µM (inactive) | > 100 µM (inactive) | > 100 µM (inactive) | > 100 µM (inactive) | > 100 µM (inactive) | – | > 100 µM (inactive) | > 100 µM (inactive) | > 100 µM (inactive) | > 100 µM (inactive) | 62.1 µM (inactive) | – | > 100 µM (inactive) | > 100 µM (inactive) |
| CCOC(=O)C1CCC/C1=N\NC(=N)N.Cc1cc(O)c(C(C)C)cc1S(=O)(=O)O (centres undefined) | – | > 100 µM (inactive) | > 100 µM (inactive) | > 100 µM (inactive) | > 100 µM (inactive) | > 100 µM (inactive) | > 100 µM (inactive) | > 100 µM (inactive) | > 100 µM (inactive) | > 100 µM (inactive) | > 100 µM (inactive) | > 100 µM (inactive) | > 100 µM (inactive) | > 100 µM (inactive) | > 100 µM (inactive) | > 100 µM (inactive) | > 100 µM (inactive) | > 100 µM (inactive) | > 100 µM (inactive) | > 100 µM (inactive) |
| c1cc(-c2cnc(-c3ccc4c(c3)CCCO4)o2)ccn1 | 15.6 µM (inactive) | 17.7 µM (inactive) | 13.8 µM (inactive) | 12.7 µM (inactive) | 11.9 µM (inactive) | – | – | 13.6 µM (inactive) | 16.2 µM (inactive) | 19.5 µM (inactive) | 16.8 µM (inactive) | 5.98 µM (inactive) | 12.6 µM (inactive) | 15.1 µM (inactive) | 14 µM (inactive) | 15.6 µM (inactive) | 12.3 µM (inactive) | 10 µM (inactive) | 16.2 µM (inactive) | – |
| CC1=CC2=C(C#N)C(=O)OC2(C)C(c2ccccc2)C1 (centres undefined) | – | > 100 µM (inactive) | > 100 µM (inactive) | > 100 µM (inactive) | > 100 µM (inactive) | > 100 µM (inactive) | > 100 µM (inactive) | > 100 µM (inactive) | > 100 µM (inactive) | > 100 µM (inactive) | > 100 µM (inactive) | – | – | > 100 µM (inactive) | > 100 µM (inactive) | > 100 µM (inactive) | > 100 µM (inactive) | > 100 µM (inactive) | > 100 µM (inactive) | – |
| COc1c2c(cc3c1C(=O)c1c(O)cccc1C3=O)CC(O)CC2 (centres undefined) | > 100 µM (inactive) | 29.8 µM (inactive) | 40.5 µM (inactive) | 50.5 µM (inactive) | 19.7 µM (inactive) | > 100 µM (inactive) | > 100 µM (inactive) | > 100 µM (inactive) | > 100 µM (inactive) | 25.6 µM (inactive) | > 100 µM (inactive) | > 100 µM (inactive) | > 100 µM (inactive) | > 100 µM (inactive) | 23.6 µM (inactive) | – | 56.9 µM (inactive) | – | 21.6 µM (inactive) | > 100 µM (inactive) |
| CN(C)C(=O)C(F)(F)C(c1ccc(F)cc1)C1C(=O)N(C)C(=O)N(C)C1=O (centres undefined) | > 100 µM (inactive) | > 100 µM (inactive) | > 100 µM (inactive) | > 100 µM (inactive) | > 100 µM (inactive) | > 100 µM (inactive) | > 100 µM (inactive) | > 100 µM (inactive) | > 100 µM (inactive) | > 100 µM (inactive) | – | > 100 µM (inactive) | > 100 µM (inactive) | > 100 µM (inactive) | > 100 µM (inactive) | > 100 µM (inactive) | > 100 µM (inactive) | – | > 100 µM (inactive) | > 100 µM (inactive) |
| O=C1/C(=C\c2ccc([N+](=O)[O-])cc2)N(S(=O)(=O)c2ccccc2)c2ncccc21 | 8.18 µM (inactive) | > 10 µM (inactive) | 20.9 µM (inactive) | 17.5 µM (inactive) | 24.5 µM (inactive) | 20.3 µM (inactive) | 18.7 µM (inactive) | – | 40.2 µM (inactive) | 16.5 µM (inactive) | 16.6 µM (inactive) | 2.98 µM (inactive) | 16.8 µM (inactive) | 21.8 µM (inactive) | 15.9 µM (inactive) | 23.1 µM (inactive) | 19.3 µM (inactive) | 18.3 µM (inactive) | 16.1 µM (inactive) | – |
| COc1nc(OC)nc(Sc2ccc(Sc3ccc(Sc4nc(OC)nc(OC)n4)cc3)cc2)n1 | > 100 µM (inactive) | > 100 µM (inactive) | > 100 µM (inactive) | > 100 µM (inactive) | > 100 µM (inactive) | > 100 µM (inactive) | > 100 µM (inactive) | > 100 µM (inactive) | > 100 µM (inactive) | > 100 µM (inactive) | > 100 µM (inactive) | > 100 µM (inactive) | > 100 µM (inactive) | > 100 µM (inactive) | > 100 µM (inactive) | > 100 µM (inactive) | > 100 µM (inactive) | > 100 µM (inactive) | – | > 100 µM (inactive) |
| S=C(S)NCNC(=S)S | > 100 µM (inactive) | > 100 µM (inactive) | > 100 µM (inactive) | > 100 µM (inactive) | > 100 µM (inactive) | > 100 µM (inactive) | > 100 µM (inactive) | > 100 µM (inactive) | > 100 µM (inactive) | > 100 µM (inactive) | > 100 µM (inactive) | > 100 µM (inactive) | > 100 µM (inactive) | > 100 µM (inactive) | > 100 µM (inactive) | > 100 µM (inactive) | > 100 µM (inactive) | – | > 100 µM (inactive) | > 100 µM (inactive) |
